Measured values from patent US12528814B2, “Bifunctional degraders of interleukin-1 receptor-associated kinases and therapeutic use thereof” (NURIX THERAPEUTICS, INC., priority 2020, dated 2026).
Read-outs that look alike come from different tables or passages of the source.

How the values were obtained:
[1] = target: T1, IRAK4 (Homo sapiens (Human), UniProt Q9NWZ3); assay: IRAK4 Degradation HiBiT Assay; conditions: HiBiT-tagged Jurkat cells, 4 hrs; for Dmax: Jurkat; for DC50: read-out: Cellular IRAK4 HiBiT: DC50
Target sequence in this assay (Q9NWZ3 whole entry): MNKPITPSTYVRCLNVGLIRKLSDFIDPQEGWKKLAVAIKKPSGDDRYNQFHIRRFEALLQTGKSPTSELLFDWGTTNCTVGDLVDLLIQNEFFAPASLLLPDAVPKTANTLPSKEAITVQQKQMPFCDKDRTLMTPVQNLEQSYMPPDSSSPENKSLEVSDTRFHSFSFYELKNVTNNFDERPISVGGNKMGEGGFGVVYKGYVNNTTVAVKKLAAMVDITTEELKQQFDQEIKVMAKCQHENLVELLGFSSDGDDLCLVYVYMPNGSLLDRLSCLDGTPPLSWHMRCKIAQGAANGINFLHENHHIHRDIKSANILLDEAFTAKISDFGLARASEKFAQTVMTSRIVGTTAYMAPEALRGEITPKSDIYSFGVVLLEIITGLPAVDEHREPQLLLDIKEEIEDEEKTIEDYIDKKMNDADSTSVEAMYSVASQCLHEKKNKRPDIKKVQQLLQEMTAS

[2] = target: T1, IRAK4; assay: IRAK4 Biochemical HTRF Kinase Assay; conditions: read-out: IRAK4 HTRF biochemical: IC50
Summary of the method: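 HTRF KinEASE STK S1 format measuring IRAK4 phosphorylation of biotinylated peptide; reaction solution of 5 μM STK-S1, 10 mM ATP, 10 mM MgCl2 added (stock, to 10 μl final), 90 min at ambient temperature, detection 60 min. IC50 from sixteen-point duplicate curves by non-linear regression.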
Target sequence in this assay (Q9NWZ3 whole entry, species assumed): as the sequence (Q9NWZ3 whole entry) above

[3] = read-out: Cellular IRAK4 HiBiT: Dmax, Table 4
[4] = read-out: Cellular IRAK4 HiBiT: Dmax, Table 5, multiple runs

Dmax [1, 3] [%]	Dmax [1, 4] [%]	DC50 ([1]; Table 4) [nM]	DC50 ([1]; Table 5, multiple runs) [nM]	IC50 ([2]; Table 4) [nM]	IC50 ([2]; Table 5, multiple runs) [nM]	SMILES
119	119	691	691	4	4	Cc1ncsc1-c1ccc(CNC(=O)[C@@H]2C[C@@H](O)CN2C(=O)[C@@H](NC(=O)C2(F)CC2)C(C)(C)C)c(OCCOCCOCCOCCOCCOCCC(=O)N2CCN(c3nnc(-c4cnc(-c5ccc6cc(C#N)cnn56)cc4NC(C)C)s3)CC2)c1 [Example 48, (2S,4R)—N-(2-((18-(4-(5-(6-(3-cyanopyrrolo[1,2-b]pyridazin-7-yl)-4-(isopropylamino)pyridin-3-yl)-1,3,4-thiadiazol-2-yl)piperazin-1-yl)-18-oxo-3,6,9,12,15-pentaoxaoctadecyl)oxy)-4-(4-methylthiazol-5-yl)benzyl)-1-((S)-2-(1-fluorocyclopropane-1-carboxamido)-3,3-dimethylbutanoyl)-4-hydroxypyrrolidine-2-carboxamide]
–	89	–	429	–	1.5	CNc1cc(-c2ccc3cc(C#N)cnn23)ncc1-c1nnc(C23CCC(NC(=O)[C@H]4CC[C@H]4C(=O)N[C@H](C(=O)N4C[C@H](O)C[C@H]4C(=O)N[C@@H](C)c4ccc(-c5scnc5C)cc4)C(C)(C)C)(CC2)CC3)s1 (mixture of isomers) [Example 144, (1RS,2SR)—N1-(4-(5-(6-(3-cyanopyrrolo[1,2-b]pyridazin-7-yl)-4-(methylamino)pyridin-3-yl)-1,3,4-thiadiazol-2-yl)bicyclo[2.2.2]octan-1-yl)-N2—((S)-1-((2S,4R)-4-hydroxy-2-(((S)-1-(4-(4-methylthiazol-5-yl)phenyl)ethyl)carbamoyl)pyrrolidin-1-yl)-3,3-dimethyl-1-oxobutan-2-yl)cyclobutane-1,2-dicarboxamide]
–	–	–	> 9980	–	1.1	CNc1cc(-c2ccc3cc(C#N)cnn23)ncc1-c1nnc(N2CCCC3(CN(Cc4ccc5c(c4)C(=O)N(C4CCC(=O)NC4=O)C5=O)C3)C2)s1 (stereo not shown) [Example 122, 7-(5-(5-(2-((2-(2,6-dioxopiperidin-3-yl)-1,3-dioxoisoindolin-5-yl)methyl)-2,6-diazaspiro[3.5]nonan-6-yl)-1,3,4-thiadiazol-2-yl)-4-(methylamino)pyridin-2-yl)pyrrolo[1,2-b]pyridazine-3-carbonitrile]
92	91	108	98.1	1.2	1.2	CC(C)Nc1cc(-c2ccc3cc(C#N)cnn23)ncc1-c1nnc(N2CCN(C(=O)C3CCN(C[C@H]4CCN(c5ccc6c(c5)C(=O)N(C5CCC(=O)NC5=O)C6=O)C4)CC3)CC2)s1 (stereo partly drawn) [Example 12, 7-(5-(5-(4-(1-(((3R)-1-(2-(2,6-dioxopiperidin-3-yl)-1,3-dioxoisoindolin-5-yl)pyrrolidin-3-yl)methyl)piperidine-4-carbonyl)piperazin-1-yl)-1,3,4-thiadiazol-2-yl)-4-(isopropylamino)pyridin-2-yl)pyrrolo[1,2-b]pyridazine-3-carbonitrile]
–	117	–	42.2	–	2.4	CNc1cc(-c2ccc3cc(C#N)cnn23)ncc1-c1nnc([C@H]2CC[C@H](NC(=O)C34CC(C(=O)N[C@H](C(=O)N5C[C@H](O)C[C@H]5C(=O)N[C@@H](C)c5ccc(-c6scnc6C)cc5)C(C)(C)C)(C3)C4)CC2)s1 [Example 101, N1-((1r,4S)-4-(5-(6-(3-cyanopyrrolo[1,2-b]pyridazin-7-yl)-4-(methylamino)pyridin-3-yl)-1,3,4-thiadiazol-2-yl)cyclohexyl)-N3-((S)-1-((2S,4R)-4-hydroxy-2-(((S)-1-(4-(4-methylthiazol-5-yl)phenyl)ethyl)carbamoyl)pyrrolidin-1-yl)-3,3-dimethyl-1-oxobutan-2-yl)bicyclo[1.1.1]pentane-1,3-dicarboxamide]
–	109	–	15.5	–	0.8	CNc1cc(-c2ccc3cc(C#N)cnn23)ncc1-c1nnc(N2CCN(C(=O)N3CCN(Cc4ccc5c(c4)C(=O)N(C4CCC(=O)NC4=O)C5=O)CC3)CC2)s1 (stereo not shown) [Example 156, 7-(5-(5-(4-(4-((2-(2,6-dioxopiperidin-3-yl)-1,3-dioxoisoindolin-5-yl)methyl)piperazine-1-carbonyl)piperazin-1-yl)-1,3,4-thiadiazol-2-yl)-4-(methylamino)pyridin-2-yl)pyrrolo[1,2-b]pyridazine-3-carbonitrile]
–	34	–	1340	–	0.6	CNc1cc(-c2ccc3cc(C#N)cnn23)ncc1-c1nnc([C@H]2CC[C@H](N(C)C(=O)CCC(=O)N[C@H](C(=O)N3C[C@H](O)C[C@H]3C(=O)N[C@@H](C)c3ccccc3)C(C)(C)C)CC2)s1 [Example 174, N1-((1r,4S)-4-(5-(6-(3-cyanopyrrolo[1,2-b]pyridazin-7-yl)-4-(methylamino)pyridin-3-yl)-1,3,4-thiadiazol-2-yl)cyclohexyl)-N4—((S)-1-((2S,4R)-4-hydroxy-2-(((S)-1-phenylethyl)carbamoyl)pyrrolidin-1-yl)-3,3-dimethyl-1-oxobutan-2-yl)-N1-methylsuccinamide]
71	75	27.8	27.2	1.6	1.8	N#Cc1cnn2c(-c3cc(NC4CCOCC4)c(-c4nnc(C56CCC(NC(=O)CCOCCOCCOCCNc7cccc8c7C(=O)N(C7CCC(=O)NC7=O)C8=O)(CC5)CC6)s4)cn3)ccc2c1 (stereo not shown) [Example 2, N-(4-(5-(6-(3-cyanopyrrolo[1,2-b]pyridazin-7-yl)-4-((tetrahydro-2H-pyran-4-yl)amino)pyridin-3-yl)-1,3,4-thiadiazol-2-yl)bicyclo[2.2.2]octan-1-yl)-3-(2-(2-(2-((2-(2,6-dioxopiperidin-3-yl)-1,3-dioxoisoindolin-4-yl)amino)ethoxy)ethoxy)ethoxy)propanamide]
39	39	228	229	9.2	9.2	CC(C)Nc1cc(-c2ccc3cc(C#N)cnn23)ncc1-c1nnc(N2CCN(C(=O)CCOCCNc3cccc4c3C(=O)N(C3CCC(=O)NC3=O)C4=O)CC2)s1 (stereo not shown) [Example 7, 7-(5-(5-(4-(3-(2-((2-(2,6-dioxopiperidin-3-yl)-1,3-dioxoisoindolin-4-yl)amino)ethoxy)propanoyl)piperazin-1-yl)-1,3,4-thiadiazol-2-yl)-4-(isopropylamino)pyridin-2-yl)pyrrolo[1,2-b]pyridazine-3-carbonitrile]
–	96	–	71.4	–	0.9	CNc1cc(-c2ccc3cc(C#N)cnn23)ncc1-c1nnc(N2CCC(C3CCN(C(=O)c4ccc5c(c4)C(=O)N(C4CCC(=O)NC4=O)C5=O)CC3)CC2)s1 (stereo not shown) [Example 184, 7-(5-(5-(1′-(2-(2,6-dioxopiperidin-3-yl)-1,3-dioxoisoindoline-5-carbonyl)-[4,4′-bipiperidin]-1-yl)-1,3,4-thiadiazol-2-yl)-4-(methylamino)pyridin-2-yl)pyrrolo[1,2-b]pyridazine-3-carbonitrile]
–	–	–	> 9980	–	0.9	CNc1cc(-c2ccc3cc(C#N)cnn23)ncc1-c1nnc(N2CCC(NC[C@@H]3CCN(c4ccc5c(c4)n(C)c(=O)n5C4CCC(=O)NC4=O)C3)CC2)s1 (stereo partly drawn) [Example 93, 7-(5-(5-(4-((((3S)-1-(1-(2,6-dioxopiperidin-3-yl)-3-methyl-2-oxo-2,3-dihydro-1H-benzo[d]imidazol-5-yl)pyrrolidin-3-yl)methyl)amino)piperidin-1-yl)-1,3,4-thiadiazol-2-yl)-4-(methylamino)pyridin-2-yl)pyrrolo[1,2-b]pyridazine-3-carbonitrile]
–	91	–	25.3	–	0.8	CNc1cc(-c2ccc3cc(C#N)cnn23)ncc1-c1nnc(C23CCC(NC(=O)CCOCCNc4ccc5c(c4)C(=O)N(C4CCC(=O)NC4=O)C5=O)(CC2)CC3)s1 (stereo not shown) [Example 102, N-(4-(5-(6-(3-cyanopyrrolo[1,2-b]pyridazin-7-yl)-4-(methylamino)pyridin-3-yl)-1,3,4-thiadiazol-2-yl)bicyclo[2.2.2]octan-1-yl)-3-(2-((2-(2,6-dioxopiperidin-3-yl)-1,3-dioxoisoindolin-5-yl)amino)ethoxy)propanamide]
–	111	–	51.4	–	0.9	CNc1cc(-c2ccc3cc(C#N)cnn23)ncc1-c1nnc([C@H]2CC[C@@H](NC(=O)C3CCN(c4ccc5c(c4)C(=O)N(C4CCC(=O)NC4=O)C5=O)CC3)CC2)s1 (stereo partly shown) [Example 133, N-((1s,4s)-4-(5-(6-(3-cyanopyrrolo[1,2-b]pyridazin-7-yl)-4-(methylamino)pyridin-3-yl)-1,3,4-thiadiazol-2-yl)cyclohexyl)-1-(2-(2,6-dioxopiperidin-3-yl)-1,3-dioxoisoindolin-5-yl)piperidine-4-carboxamide]
53	53	420	419	3.6	3.6	Cc1ncsc1-c1ccc([C@H](C)NC(=O)[C@@H]2C[C@@H](O)CN2C(=O)[C@@H](NC(=O)CCC(=O)N2CCN(c3nnc(-c4cnc(-c5ccc6cc(C#N)cnn56)cc4NC(C)C)s3)CC2)C(C)(C)C)cc1 [Example 40, (2S,4R)-1-((S)-2-(4-(4-(5-(6-(3-cyanopyrrolo[1,2-b]pyridazin-7-yl)-4-(isopropylamino)pyridin-3-yl)-1,3,4-thiadiazol-2-yl)piperazin-1-yl)-4-oxobutanamido)-3,3-dimethylbutanoyl)-4-hydroxy-N—((S)-1-(4-(4-methylthiazol-5-yl)phenyl)ethyl)pyrrolidine-2-carboxamide]
